Measured values reported in the supplement of paper PMC11451515.

Tests used:
Details in all cases: 48 h
SEM cells [1] = test: AUC of viability dose-response curve (% viability x log10 dose units); higher = less sensitive
In short: (§1)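 Leukemia cells adapted to each medium were seeded at 500 or 1000 cells/well in 1536-well plates and dosed with library compounds in DMSO at 11 threefold doses from 47 μM to 0.79 nM for 48 h at 37°C. CellTiter-Glo One luminescence was normalised per plate to DMSO and cell-free wells, then fitted with a four-parameter log-logistic model over log10 doses. Area under the curve was taken from this fit by the trapezoidal rule, with curves above full viability scaled and curves failing quality control removed.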

NOMO1 [2] = test: as above
In short: as §1

P12-Ichikawa [3] = test: as above
In short: as §1

SEM cells [4] = test: cell viability relative to DMSO control; higher = less cytotoxic
In short: (§2)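 NOMO1 or SEM (500 cells/well) or P12-Ichikawa (1000 cells/well) leukemia cells were adapted for at least four passages in each medium. They were seeded in 1536-well plates (5 μl) and pin-dosed with library compounds in DMSO over an 11-point threefold series, 47 μM to 0.79 nM. CellTiter-Glo One luminescence was read after 48 h at 37°C. Viability is the per-plate percentage relative to DMSO wells, with cell-free wells as background.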

NOMO1 [5] = test: as above
In short: as §2

P12-Ichikawa [6] = test: as above
In short: as §2

COc1cc2ncnc(Nc3cc(Br)c(O)c(Br)c3)c2cc1OC
AUC of viability dose-response curve
Details | NOMO1 [2] | P12-Ichikawa [3] | SEM cells [1]
HPLM + 10% dialyzed FBS | 477 | 473 | 458
RPMI 5 mM glucose + 10% FBS | 470 | 469 | 462
RPMI 5 mM glucose + 10% dialyzed FBS | 467 | 472 | 461

cell viability [%]
Details | NOMO1 [5] | P12-Ichikawa [6] | SEM cells [4]
HPLM + 10% dialyzed FBS, 0.000781 µM | 95.8 | 98.7 | 80
HPLM + 10% dialyzed FBS, 0.00234 µM | 91 | 103 | 90.5
HPLM + 10% dialyzed FBS, 0.00702 µM | 114 | 106 | 97.8
HPLM + 10% dialyzed FBS, 0.0211 µM | 112 | 101 | 98.4
HPLM + 10% dialyzed FBS, 0.0632 µM | 107 | 112 | 109
HPLM + 10% dialyzed FBS, 0.19 µM | 102 | 110 | 101
HPLM + 10% dialyzed FBS, 0.569 µM | 120 | 109 | 113
HPLM + 10% dialyzed FBS, 1.71 µM | 119 | 107 | 109
HPLM + 10% dialyzed FBS, 5.12 µM | 97.2 | 106 | 104
HPLM + 10% dialyzed FBS, 15.4 µM | 111 | 108 | 106
HPLM + 10% dialyzed FBS, 46.1 µM | 85.6 | 96.5 | 78
RPMI 5 mM glucose + 10% FBS, 0.000781 µM | 99.5 | 92.3 | 112
RPMI 5 mM glucose + 10% FBS, 0.00234 µM | 115 | 104 | 107
RPMI 5 mM glucose + 10% FBS, 0.00702 µM | 99.8 | 107 | 118
RPMI 5 mM glucose + 10% FBS, 0.0211 µM | 103 | 114 | 121
RPMI 5 mM glucose + 10% FBS, 0.0632 µM | 118 | 109 | 125
RPMI 5 mM glucose + 10% FBS, 0.19 µM | 113 | 113 | 101
RPMI 5 mM glucose + 10% FBS, 0.569 µM | 109 | 117 | 131
RPMI 5 mM glucose + 10% FBS, 1.71 µM | 109 | 118 | 124
RPMI 5 mM glucose + 10% FBS, 5.12 µM | 107 | 99.7 | 108
RPMI 5 mM glucose + 10% FBS, 15.4 µM | 110 | 106 | 102
RPMI 5 mM glucose + 10% FBS, 46.1 µM | 106 | 79.4 | 85.6
RPMI 5 mM glucose + 10% dialyzed FBS, 0.000781 µM | 92.4 | 95.8 | 82.8
RPMI 5 mM glucose + 10% dialyzed FBS, 0.00234 µM | 99.7 | 104 | 99.2
RPMI 5 mM glucose + 10% dialyzed FBS, 0.00702 µM | 99.3 | 108 | 110
RPMI 5 mM glucose + 10% dialyzed FBS, 0.0211 µM | 107 | 109 | 97.8
RPMI 5 mM glucose + 10% dialyzed FBS, 0.0632 µM | 105 | 111 | 113
RPMI 5 mM glucose + 10% dialyzed FBS, 0.19 µM | 96.8 | 114 | 99.7
RPMI 5 mM glucose + 10% dialyzed FBS, 0.569 µM | 108 | 114 | 103
RPMI 5 mM glucose + 10% dialyzed FBS, 1.71 µM | 112 | 118 | 108
RPMI 5 mM glucose + 10% dialyzed FBS, 5.12 µM | 103 | 105 | 98.5
RPMI 5 mM glucose + 10% dialyzed FBS, 15.4 µM | 104 | 109 | 89.1
RPMI 5 mM glucose + 10% dialyzed FBS, 46.1 µM | 98.2 | 94.9 | 61.6

CC[C@H](C)[N]1C=C(C)C2=C1C=C(C=C2C(=O)NC\C3=C(C)\C=C(\C)NC3=O)C4=CC=C(N=C4)N5CCNCC5
AUC of viability dose-response curve
Details | NOMO1 [2] | P12-Ichikawa [3] | SEM cells [1]
HPLM + 10% dialyzed FBS | 469 | 476 | 474
RPMI 5 mM glucose + 10% FBS | 475 | 468 | 472
RPMI 5 mM glucose + 10% dialyzed FBS | 467 | 474 | 463

cell viability [%]
Details | NOMO1 [5] | P12-Ichikawa [6] | SEM cells [4]
HPLM + 10% dialyzed FBS, 0.000781 µM | 112 | 109 | 106
HPLM + 10% dialyzed FBS, 0.00234 µM | 108 | 116 | 104
HPLM + 10% dialyzed FBS, 0.00702 µM | 125 | 114 | 112
HPLM + 10% dialyzed FBS, 0.0211 µM | 131 | 115 | 117
HPLM + 10% dialyzed FBS, 0.0632 µM | 130 | 115 | 114
HPLM + 10% dialyzed FBS, 0.19 µM | 129 | 122 | 106
HPLM + 10% dialyzed FBS, 0.569 µM | 124 | 116 | 112
HPLM + 10% dialyzed FBS, 1.71 µM | 104 | 117 | 117
HPLM + 10% dialyzed FBS, 5.12 µM | 127 | 114 | 113
HPLM + 10% dialyzed FBS, 15.4 µM | 122 | 118 | 113
HPLM + 10% dialyzed FBS, 46.1 µM | 82.3 | 109 | 99
RPMI 5 mM glucose + 10% FBS, 0.000781 µM | 105 | 104 | 83.5
RPMI 5 mM glucose + 10% FBS, 0.00234 µM | 108 | 116 | 105
RPMI 5 mM glucose + 10% FBS, 0.00702 µM | 121 | 117 | 108
RPMI 5 mM glucose + 10% FBS, 0.0211 µM | 123 | 118 | 102
RPMI 5 mM glucose + 10% FBS, 0.0632 µM | 122 | 117 | 113
RPMI 5 mM glucose + 10% FBS, 0.19 µM | 115 | 113 | 108
RPMI 5 mM glucose + 10% FBS, 0.569 µM | 126 | 126 | 99
RPMI 5 mM glucose + 10% FBS, 1.71 µM | 115 | 129 | 109
RPMI 5 mM glucose + 10% FBS, 5.12 µM | 128 | 117 | 96.5
RPMI 5 mM glucose + 10% FBS, 15.4 µM | 113 | 125 | 95
RPMI 5 mM glucose + 10% FBS, 46.1 µM | 102 | 106 | 101
RPMI 5 mM glucose + 10% dialyzed FBS, 0.000781 µM | 116 | 103 | 101
RPMI 5 mM glucose + 10% dialyzed FBS, 0.00234 µM | 125 | 107 | 120
RPMI 5 mM glucose + 10% dialyzed FBS, 0.00702 µM | 124 | 108 | 115
RPMI 5 mM glucose + 10% dialyzed FBS, 0.0211 µM | 127 | 113 | 108
RPMI 5 mM glucose + 10% dialyzed FBS, 0.0632 µM | 128 | 115 | 110
RPMI 5 mM glucose + 10% dialyzed FBS, 0.19 µM | 123 | 114 | 103
RPMI 5 mM glucose + 10% dialyzed FBS, 0.569 µM | 137 | 116 | 107
RPMI 5 mM glucose + 10% dialyzed FBS, 1.71 µM | 138 | 132 | 100
RPMI 5 mM glucose + 10% dialyzed FBS, 5.12 µM | 148 | 115 | 107
RPMI 5 mM glucose + 10% dialyzed FBS, 15.4 µM | 118 | 108 | 116
RPMI 5 mM glucose + 10% dialyzed FBS, 46.1 µM | 96.4 | 93.1 | 104
